Literature values in US20160018671A1, “DRUG DELIVERY FROM CONTACT LENSES WITH A FLUIDIC MODULE” (ONEFOCUS TECHNOLOGY, LLC, priority 2013, published 2016).
Structures can show the parent of a compound that is named as a salt.

Conditions: contact lenses passively impregnated with the drug; for IOP reductions: compared with conventional therapy

Molecule	toxicity	IOP reductions
CC(C)(C)NC[C@H](O)COc1nsnc1N1CCOCC1 [timolol maleate]	no toxicity	equivalent to conventional therapy
brimonidine tartrate	no toxicity	equivalent to conventional therapy
